Experimental findings from PubChem BioAssay AID977607 (Broad Institute, 2014) are described below.

Active and inactive are the calls of the source.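 How the source made its calls: active means curve reaches 40% activation over neutral controls at an AC40 no higher than the top valid tested concentration; inconclusive means no clear call, values can overlap the other calls; inactive means signal moving opposite to the expected increase, and the rest.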

In this assay the test system is INS-1E GLuc insulin secretion reporter, luminescence, 2-3 h. The experiment in a line: GLuc-reported insulin release enhancers, glucose-stimulated beta cells – cell-based, INS-1E, Gaussia luciferase, luminescence, cherry-pick, set 2, dose response (AID 977607).
As for `COc1nc(N2CCOCC2)nc(-n2cccc2)n1`, the AC40 is 0.937 µM. Next, `COc1ccc(-c2ccc(SCc3cccnc3)nn2)cc1OC`: 0.451 µM; `CCOC(=O)[C@]12Cc3cc(OC)ccc3[C@H]1N(C1CCCCC1)C(=O)c1cc(OC)ccc12`: 12 µM; `O=C(Nc1ccc(F)cc1)Nc1cc(OCC(F)(F)F)cc(OCC(F)(F)F)c1`: 7.63 µM.

Turning to `COc1ccc(Br)cc1C(=O)Nc1cc(C)cc(C)c1`, the AC40 was 7.63 µM. As for `NS(=O)(=O)c1ccc(NC(=O)COC(=O)c2cn(-c3ccccc3)nc2-c2ccc(F)cc2)cc1`, the figure is 4.82 µM; as for `COc1cc(NC(=O)c2cccc(C)c2)ccc1NC(=O)c1cc2ccccc2o1`, 3.24 µM; as for `CCN1CCN(Cc2ccc(NC(=O)c3cccc(-c4ccc5nc(NC(=O)C6CC6)sc5n4)c3)cc2C(F)(F)F)CC1`, 11.4 µM.

With `CCCCNc1cc(Cl)nc(N)n1`, the AC40 was 7.24 µM. With `Cc1ccccc1C(=O)Nc1nnc(-c2ccc(C(C)(C)C)cc2)s1`, the AC40 is 18.3 µM.

Take `COc1ccc(C2=Nn3c(nnc3-c3ccncc3)SC2)cc1OC`: the AC40 is 13.3 µM. As for `CCOc1ccc(CCNC(=O)COc2cc(=O)n(C)c3ccccc23)cc1OCC`, the figure is 22.6 µM; as for `Cc1ccc(NC(=O)c2oc3ccc(S(=O)(=O)N4CCOCC4)cc3c2C)cc1C`, 15.6 µM. Next, `COc1nc(-c2ccc(Cl)cc2)ccc1-c1noc(-c2ccco2)n1`: 19.5 µM. As for `N#Cc1ccc(-c2ccc([C@@H]3[C@H]4CNC[C@@H]3N4Cc3cc(F)ccc3F)cc2)cc1`, the figure is 16 µM.

Turning to `O=C(Nc1ccc2c(c1)OCO2)c1sc2cc(Cl)ccc2c1Cl`, the AC40 is 12 µM.

Turning to `CC(C)Cn1c(=O)n(C)c(=O)c2[nH]cnc21`, the AC40 is 9.51 µM. As for `NS(=O)(=O)c1ccc(N=Cc2c(O)n(C3CCCCC3)c(=O)n(C3CCCCC3)c2=O)cc1`, the figure is 16 µM; as for `COc1cc(C(=O)Nc2ccn(C)n2)ccc1OC(F)F`, > 35 µM (inactive); as for `O=C(OCC12CC3CC(CC(C3)C1)C2)c1ccc(NCc2cc(O)ccc2O)cc1`, 14.9 µM. In the case of `O=C(O)c1ccc(-n2nnnc2SCc2ccccc2F)cc1`, the AC40 was 0.0781 µM. In the case of `COc1cccc(CN2C[C@@H]3N[C@H](C2)C3c2ccc(-c3ccccc3OC)cc2)c1` (stereo partly drawn), the AC40 is 7.9 µM. Regarding `NC(c1csc(Nc2ccc(C(F)(F)F)cn2)n1)C1CCCCC1` (stereo not drawn), the AC40 was 9.81 µM.

For the compound `CCOc1ccc(-c2nnn(CC(=O)Nc3ccccc3OC)n2)cc1OCC`, the AC40 is 2.04 µM. For `COc1ccc(-c2nnc3sc(-c4cccs4)nn23)cc1OC`, the AC40 was 22 µM. In the case of `Nc1c(C(=O)Nc2ccc3c(c2)OCCO3)nnn1Cc1ccc(Cl)cc1`, the AC40 was 12.7 µM. As for `COc1cccc(-c2ccc(C3[C@@H]4CN(Cc5cccc(F)c5)C[C@H]3N4)cc2)c1` (stereo partly drawn), the figure is 4.47 µM; as for `C/C(Cl)=C/CSc1nc2c(c(=O)[nH]c(=O)n2C)n1C(C)C`, 20 µM. As for `COc1ccc(CCNS(=O)(=O)c2cccc(C)c2)cc1OC`, the figure is 2.46 µM. Next, `CCC(=NC(C)c1ccccc1)c1c(O)[nH]c(=O)[nH]c1=O` (stereo not drawn): 11.1 µM; `CCOC(=O)c1cnc2c(Cl)c(Cl)ccc2c1NCCN1CCOCC1`: > 35 µM (inactive). On to `Cc1ccc(CC2(OCCN(C)C)CCC(C(C)(C)C)CC2)cc1` (stereo not drawn), for which the AC40 is 13.9 µM.

For `CN(Cc1c(C(=O)N/N=C/c2ccccc2O)nnn1-c1nonc1N)C1CCCCC1`, the AC40 is 9.53 µM. As for `CC(C)(C)c1cc(NCCCn2ccnc2)n2ncc(-c3ccc(Cl)cc3)c2n1`, the figure is 6.19 µM; as for `O=c1cc(-c2ccncc2)oc2c1ccc1ccccc12`, 11.6 µM.

In the case of `CN(C)CCCNc1cc(C(C)(C)C)nc2c(-c3ccc(Cl)cc3)cnn12`, the AC40 is 7.08 µM.

Regarding `COc1cc(OC)c2c3c(c(C4CCCCC4)nc2c1)CCC3`, the AC40 was 9.8 µM. As for `Cc1cc(NC(=O)c2cc(-c3cccc(Cl)c3)on2)no1`, the figure is 5.68 µM. Take `CC(C)n1cc(/C(N)=N/O)c(=O)n(Cc2ccccc2)c1=O`: the AC40 is 9.39 µM. Next, `COc1ccc(CCN(C)C(=O)COc2cccc(-n3cnnn3)c2)cc1OC`: > 35 µM (inactive). As for `COc1ccc(C#Cc2ccc([C@@H]3[C@H](CO)N4CCCCN(Cc5ccccc5F)C[C@@H]34)cc2)cc1`, the figure is 6.53 µM; as for `FC(F)(F)c1cc(CCN2CCNC[C@@H]2CC2CCCCC2)cc(C(F)(F)F)c1`, 5.27 µM. Next, `CCn1nc(C(=O)Nc2ccc3nc(C)sc3c2)c2ccccc2c1=O`: 25.1 µM; `COc1ccc(N2CCN(c3ccc(NC(=O)C4CCCCC4)cc3C#N)CC2)cc1`: 2.8 µM. In the case of `CC(=NC(C)c1ccccc1)c1c(O)[nH]c(=O)[nH]c1=O` (stereo not drawn), the AC40 was 15 µM. Next, `CC(C)(C(=O)N1CCC1(C)C(=O)NS(=O)(=O)c1ccc(Br)cc1)c1ccccc1` (stereo not drawn): 12.7 µM. Regarding `CC(=O)Nc1sc(N/N=C\c2cccc(Cl)c2)nc1-c1cccs1`, the AC40 is 6.6 µM.

For `CCCCCCN1C[C@H](n2cc(C3CC3)nn2)[C@@H](O)C[C@@H]1c1ccc(C)cc1`, the AC40 is 7.33 µM.

`Cc1ccc(C(=O)Oc2ccc(-c3nccc(-c4ccccn4)n3)cc2)cc1`: the AC40 was 3.99 µM. Next, `COC(=O)C1=C(C)N(Cc2cccc(C(F)(F)F)c2)C(=NCc2ccccc2)NC1c1ccc(Cl)cc1` (stereo not drawn): 11.6 µM; `Cc1ccccc1-c1ccc(C2[C@@H]3CN(S(=O)(=O)c4ccccc4C)C[C@H]2N3)cc1` (stereo partly drawn): 9.88 µM; `CCCc1nc2ccccc2c(=O)n1CC(=O)c1ccc(OC)cc1`: 16.4 µM. With `O=S(=O)(Nc1ccc(-c2ccc3nncn3n2)cc1)c1ccccc1Cl`, the AC40 was 15.2 µM.

On to `O=C(c1ccc(F)cc1)N1C[C@@H]2N[C@H](C1)C2c1ccc(/C=C/c2ccccc2)cc1` (stereo partly drawn), for which the AC40 is 6.56 µM. As for `NC(N)=N/N=C/c1ccc(N(c2ccccc2)c2ccccc2)cc1`, the figure is 5.68 µM; as for `CCCNC(=O)c1nnsc1S(=O)c1ccc(Cl)cc1` (stereo not drawn), 1.06 µM; as for `COc1ccc2c(c1)C(=NNC(=O)c1ccccn1)c1cc(OC)ccc1-2`, 3.1 µM. As for `COc1ccc(S(=O)(=O)Nc2ccccc2OC)cc1N=Nc1c(O)[nH]c(=S)[nH]c1=O`, the figure is 16.4 µM; as for `O=c1c2ccc(Cl)cc2[nH]c(=S)n1CCC1=CCCCC1`, 3.37 µM; as for `CC(NC(=O)COC(=O)c1ccccc1Nc1ccccc1)c1ccccc1` (stereo not drawn), 12.2 µM. For `Fc1cccc(CN2C[C@@H]3N[C@H](C2)C3c2ccc(/C=C/c3ccccc3)cc2)c1` (stereo partly drawn), the AC40 was 11.4 µM. In the case of `CC1(C(=O)NCc2cccc3ccccc23)CCN1Cc1ccc(OC(F)(F)F)cc1` (stereo not drawn), the AC40 was 14.3 µM. As for `Cc1ccc(-n2sc3cc(F)ccc3c2=O)c(C)c1`, the figure is 1.94 µM; as for `COc1ccc(C)cc1NCc1cc(=O)oc2cc(-c3ccccc3)c(O)cc12`, 15.8 µM; as for `COC(=O)C1=C(C)N(Cc2cccc(C(F)(F)F)c2)C(=NCc2ccc(OC)cc2)NC1c1cccc(F)c1` (stereo not drawn), 10.8 µM. As for `CCS(=O)(=O)Nc1ccc(-c2cc(-c3ccccc3)c3cc(C)ccc3n2)cc1`, the figure is 6.45 µM; as for `COc1cc2c(cc1OC)-c1cc(Nc3ccc(C)cc3)nc(=O)n1CC2`, 11.8 µM; as for `NC(N)=N/N=C/c1ccc(OCc2ccccc2)c(OCc2ccccc2)c1`, 10.2 µM.
